The text below walks through data of ChEMBL document CHEMBL1201862, “PubChem BioAssay data set” (2004).

Assay [1] has as its system HEK293. Put plainly: cells. The format is functional, cell-based. The note with it: Homo sapiens.
Another assay concerns the target Tumor necrosis factor (Homo sapiens, UniProt P01375). As to the kind of experiment: analog potency on TNFa NF-kB signaling – cell-based, revised, SAR follow-up (AID 2337). The format is functional.
The test system of assay [2] is HEK293. As to the kind of experiment: cells. The note with it: Homo sapiens.
The target of assay [3] is T1, Nucleotide-binding oligomerization domain-containing protein 2 (Homo sapiens, UniProt Q9HC29). As to the kind of experiment: inhibition of NOD2-driven NF-kB reporter – cell-based, luminescence, uHTS, HEK293 (AID 1566). The format is functional.
In assay [4] the target is T2, Nucleotide-binding oligomerization domain-containing protein 1 (Homo sapiens, UniProt Q9Y239).
T2 sequence (Q9Y239 whole entry): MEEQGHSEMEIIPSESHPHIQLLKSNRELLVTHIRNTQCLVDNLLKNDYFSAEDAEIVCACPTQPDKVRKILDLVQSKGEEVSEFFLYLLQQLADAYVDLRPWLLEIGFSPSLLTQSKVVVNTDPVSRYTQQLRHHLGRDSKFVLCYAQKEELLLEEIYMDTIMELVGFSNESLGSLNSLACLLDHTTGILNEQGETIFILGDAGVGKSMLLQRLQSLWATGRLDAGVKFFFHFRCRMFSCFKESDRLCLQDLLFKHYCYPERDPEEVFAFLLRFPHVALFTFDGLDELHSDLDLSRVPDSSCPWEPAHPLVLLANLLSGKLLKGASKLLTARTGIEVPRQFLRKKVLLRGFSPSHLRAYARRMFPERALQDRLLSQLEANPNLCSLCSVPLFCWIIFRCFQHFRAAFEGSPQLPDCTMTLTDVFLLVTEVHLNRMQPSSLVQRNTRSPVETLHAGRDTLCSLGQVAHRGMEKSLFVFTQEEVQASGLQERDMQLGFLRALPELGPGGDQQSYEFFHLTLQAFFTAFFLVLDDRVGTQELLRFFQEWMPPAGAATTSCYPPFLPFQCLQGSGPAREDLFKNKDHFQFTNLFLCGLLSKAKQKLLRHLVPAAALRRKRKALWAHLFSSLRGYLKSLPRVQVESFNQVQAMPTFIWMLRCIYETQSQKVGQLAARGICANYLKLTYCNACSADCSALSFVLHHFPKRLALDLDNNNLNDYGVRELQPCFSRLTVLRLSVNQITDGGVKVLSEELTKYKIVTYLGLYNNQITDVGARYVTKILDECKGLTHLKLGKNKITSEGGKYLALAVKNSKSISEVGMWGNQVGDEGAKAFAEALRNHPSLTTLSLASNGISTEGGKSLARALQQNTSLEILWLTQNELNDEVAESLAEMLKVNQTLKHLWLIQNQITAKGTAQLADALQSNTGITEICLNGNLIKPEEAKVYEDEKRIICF
Put plainly: blockers of NOD1 pathway activity – revised, SAR follow-up (AID 2333). The format is functional.

The subject of assay [5] is HEK293. Put plainly: NOD2 signaling inhibitors in MDP-stimulated cells, cell-based, uHTS, luminescence (AID 2001). The format is functional. As to conditions: Homo sapiens.
Assay [6] has as its system HEK293. As to the kind of experiment: cells. The note with it: Homo sapiens. The format is functional, cell-based. The source holds these as a separate data set.
The subject of assay [7] is HEK293. As to the kind of experiment: inhibition of NOD1-driven NF-kB reporter – cell-based, luminescence, uHTS, primary screen (AID 1578). The assay is classed as functional. The note with it: Homo sapiens.
In assay [8] the test system is HEK293. As to the kind of experiment: cells. The format is functional, cell-based. The note with it: Homo sapiens. This is another data set of the same source.
The target of assay [9] is T3, Carboxy-terminal domain RNA polymerase II polypeptide A small phosphatase 1 (Homo sapiens, UniProt Q9GZU7).
T3 sequence (Q9GZU7 whole entry): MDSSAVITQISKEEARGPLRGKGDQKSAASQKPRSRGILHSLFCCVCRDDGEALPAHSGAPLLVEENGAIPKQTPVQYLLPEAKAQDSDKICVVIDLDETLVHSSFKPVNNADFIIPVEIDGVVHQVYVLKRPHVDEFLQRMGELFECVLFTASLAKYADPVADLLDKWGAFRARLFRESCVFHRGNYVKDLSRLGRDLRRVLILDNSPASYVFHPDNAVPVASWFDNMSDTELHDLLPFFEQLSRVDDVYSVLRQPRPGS
As to the kind of experiment: CTDSP1 inhibitors, concentration-response, biochemical, absorbance readout, ultra-high-throughput screen actives (AID 540297). The format is functional.

Assay [10] deals with 26S proteasome non-ATPase regulatory subunit 14 (Homo sapiens, UniProt O00487). As to the kind of experiment: inhibition of proteasome subunit RPN11 – biochemical, fluorescence polarization, uHTS hits, confirmation (AID 602368). The format is functional. (In general: Polarisation of emitted light reports the rotation of a fluorescent probe.)
The next assay has as its target Prothrombin (Bos taurus, UniProt P00735). Put plainly: thrombin protease inhibitors – biochemical, fluorescence polarization, uHTS hits, dose response (AID 602369). The assay is classed as functional.
The target of the next assay is SUMO-activating enzyme (Homo sapiens, UniProt Q9UBT2). Put plainly: blockers of UBC9-mediated SUMO conjugation – biochemical, AlphaScreen, SUMOylation inhibitor project, confirmation (AID 2018). The assay is classed as functional. Background: Bead proximity is the source of the signal in Alpha formats.
Assay [11] has as its target 72 kDa type IV collagenase (Homo sapiens, UniProt P08253). As to the kind of experiment: Dose Response validation of uHTS RPN11 inhibitor hits using a MMP-2 Fluorescence assay. The format is functional.
Assay [12] deals with T4, Voltage-gated N-type calcium channel alpha-1B subunit/Amyloid beta A4 precursor protein-binding family A member 1 (Homo sapiens, UniProt Q00975+Q02410). The assay is classed as protein assay.
Assay [13] addresses T4, Voltage-gated N-type calcium channel alpha-1B subunit/Amyloid beta A4 precursor protein-binding family A member 1. The assay is classed as protein assay. The source holds these as a separate data set.
The nature of assay [14]: Trypanosoma cruzi growth suppression in host cells – NIH3T3 host cells, beta-gal luminescence, confirmation (AID 2044).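 Note: intracellular parasites grown in NIH/3T3 mouse fibroblasts as host cells; luminescent beta-galactosidase reporter signal from transgenic T. cruzi replicating inside host cells; inhibitors lower the luminescence signal.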 The format is functional, cell-based.
In assay [15] the target is Neurotensin receptor type 1 (Homo sapiens, UniProt P30989). The format is functional.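 Note: Image-based confirmatory dose-response assay measuring agonist activity at NTR1; NTR1-expressing U2OS osteosarcoma cells imaged for beta-arrestin GFP spot formation; agonist potency where compounds increase beta-arrestin recruitment.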
Assay [16] in a line: NIH3T3 cell viability loss – ATP luminescence, mouse fibroblasts, counter-screen, dose response (AID 2010).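 Note: cells exposed to compound for about 90 hours before reading.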 The assay is classed as functional, cell-based. For orientation: A counterscreen serves to expose hits that act by an unwanted route or on another target.
Assay [17] can be described thus: Luminescence Cell-Based Dose Retest to Confirm Inhibitors of Cancer Stem Cells. [Related pubchem assays (depositor defined):AID2717, AID2721]. The assay is classed as functional. As to conditions: Homo sapiens.
The target in assay [18] is T1, Nucleotide-binding oligomerization domain-containing protein 2. As to the kind of experiment: PubChem AID 2334. The format is functional.
The next assay addresses T5, Insulin-degrading enzyme (Homo sapiens, UniProt P14735).
T5 sequence (P14735 whole entry): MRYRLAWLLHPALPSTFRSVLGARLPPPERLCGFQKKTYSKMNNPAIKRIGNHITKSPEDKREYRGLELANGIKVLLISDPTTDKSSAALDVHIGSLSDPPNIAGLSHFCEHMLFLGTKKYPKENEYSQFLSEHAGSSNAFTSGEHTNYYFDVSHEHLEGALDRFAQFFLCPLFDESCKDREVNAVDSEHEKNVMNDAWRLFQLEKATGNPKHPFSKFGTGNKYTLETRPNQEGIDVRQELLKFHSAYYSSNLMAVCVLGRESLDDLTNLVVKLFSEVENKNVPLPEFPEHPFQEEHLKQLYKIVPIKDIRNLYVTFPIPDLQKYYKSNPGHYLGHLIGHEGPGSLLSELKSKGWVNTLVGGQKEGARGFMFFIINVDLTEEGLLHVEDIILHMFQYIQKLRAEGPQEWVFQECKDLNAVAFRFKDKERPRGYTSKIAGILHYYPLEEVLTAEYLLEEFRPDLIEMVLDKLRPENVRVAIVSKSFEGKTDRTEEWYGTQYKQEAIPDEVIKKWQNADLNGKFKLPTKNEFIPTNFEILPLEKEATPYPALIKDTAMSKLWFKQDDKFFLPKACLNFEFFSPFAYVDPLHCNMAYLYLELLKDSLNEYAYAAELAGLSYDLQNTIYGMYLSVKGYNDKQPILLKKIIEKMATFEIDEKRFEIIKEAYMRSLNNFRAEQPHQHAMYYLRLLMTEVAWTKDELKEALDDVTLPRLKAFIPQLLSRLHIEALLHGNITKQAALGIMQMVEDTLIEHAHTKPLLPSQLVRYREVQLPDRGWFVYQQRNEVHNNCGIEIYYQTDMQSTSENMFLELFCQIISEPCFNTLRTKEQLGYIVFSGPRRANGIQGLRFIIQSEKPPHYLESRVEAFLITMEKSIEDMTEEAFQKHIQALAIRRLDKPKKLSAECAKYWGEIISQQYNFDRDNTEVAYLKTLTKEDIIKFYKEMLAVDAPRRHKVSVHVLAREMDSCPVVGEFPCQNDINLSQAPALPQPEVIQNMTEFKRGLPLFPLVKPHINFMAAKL
As to the kind of experiment: Dose Response: Fluorescence polarization-based cell-based high throughput dose response assay for inhibitors of insulin-degrading enzyme (IDE). [Related pubchem assays: 434962 (Primary screen (IDE inhibitors in singlicate)), 449730 (Counterscreen (Cytotoxicity in triplicate)), 435028 (Confirmation (IDE inhibitors in triplicate)), 434984 (Summary …. The format is functional.

Assay [19] can be described thus: Counterscreen for IDE inhibitors: Luminescence-based cell-based high throughput dose response assay to identify compounds that are cytotoxic to HEK cells. [Related pubchem assays: 434962 (Primary screen (IDE inhibitors in singlicate)), 449730 (Counterscreen (Cytotoxicity in triplicate)), 435028 (Confirmation (IDE inhibitors in triplicate)) …. The format is functional. The note with it: HEK293.

Active and inactive are the calls of the source. Cut-off read from the data, not from the text of the source, for most assays here: actives have a measured IC50 and inactives only a lower limit.
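Throughout, for AC50: cells exposed to compound for roughly 70 hours or longer before luminescence read.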

Sequence of Tumor necrosis factor (P01375 whole entry): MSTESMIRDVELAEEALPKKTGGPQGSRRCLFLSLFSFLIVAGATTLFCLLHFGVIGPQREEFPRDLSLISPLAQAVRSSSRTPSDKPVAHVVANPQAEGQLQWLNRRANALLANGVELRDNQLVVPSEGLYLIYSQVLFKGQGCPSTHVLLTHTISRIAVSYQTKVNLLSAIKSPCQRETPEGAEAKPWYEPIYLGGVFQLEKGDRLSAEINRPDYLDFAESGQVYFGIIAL
T4 sequence (Q00975 whole entry): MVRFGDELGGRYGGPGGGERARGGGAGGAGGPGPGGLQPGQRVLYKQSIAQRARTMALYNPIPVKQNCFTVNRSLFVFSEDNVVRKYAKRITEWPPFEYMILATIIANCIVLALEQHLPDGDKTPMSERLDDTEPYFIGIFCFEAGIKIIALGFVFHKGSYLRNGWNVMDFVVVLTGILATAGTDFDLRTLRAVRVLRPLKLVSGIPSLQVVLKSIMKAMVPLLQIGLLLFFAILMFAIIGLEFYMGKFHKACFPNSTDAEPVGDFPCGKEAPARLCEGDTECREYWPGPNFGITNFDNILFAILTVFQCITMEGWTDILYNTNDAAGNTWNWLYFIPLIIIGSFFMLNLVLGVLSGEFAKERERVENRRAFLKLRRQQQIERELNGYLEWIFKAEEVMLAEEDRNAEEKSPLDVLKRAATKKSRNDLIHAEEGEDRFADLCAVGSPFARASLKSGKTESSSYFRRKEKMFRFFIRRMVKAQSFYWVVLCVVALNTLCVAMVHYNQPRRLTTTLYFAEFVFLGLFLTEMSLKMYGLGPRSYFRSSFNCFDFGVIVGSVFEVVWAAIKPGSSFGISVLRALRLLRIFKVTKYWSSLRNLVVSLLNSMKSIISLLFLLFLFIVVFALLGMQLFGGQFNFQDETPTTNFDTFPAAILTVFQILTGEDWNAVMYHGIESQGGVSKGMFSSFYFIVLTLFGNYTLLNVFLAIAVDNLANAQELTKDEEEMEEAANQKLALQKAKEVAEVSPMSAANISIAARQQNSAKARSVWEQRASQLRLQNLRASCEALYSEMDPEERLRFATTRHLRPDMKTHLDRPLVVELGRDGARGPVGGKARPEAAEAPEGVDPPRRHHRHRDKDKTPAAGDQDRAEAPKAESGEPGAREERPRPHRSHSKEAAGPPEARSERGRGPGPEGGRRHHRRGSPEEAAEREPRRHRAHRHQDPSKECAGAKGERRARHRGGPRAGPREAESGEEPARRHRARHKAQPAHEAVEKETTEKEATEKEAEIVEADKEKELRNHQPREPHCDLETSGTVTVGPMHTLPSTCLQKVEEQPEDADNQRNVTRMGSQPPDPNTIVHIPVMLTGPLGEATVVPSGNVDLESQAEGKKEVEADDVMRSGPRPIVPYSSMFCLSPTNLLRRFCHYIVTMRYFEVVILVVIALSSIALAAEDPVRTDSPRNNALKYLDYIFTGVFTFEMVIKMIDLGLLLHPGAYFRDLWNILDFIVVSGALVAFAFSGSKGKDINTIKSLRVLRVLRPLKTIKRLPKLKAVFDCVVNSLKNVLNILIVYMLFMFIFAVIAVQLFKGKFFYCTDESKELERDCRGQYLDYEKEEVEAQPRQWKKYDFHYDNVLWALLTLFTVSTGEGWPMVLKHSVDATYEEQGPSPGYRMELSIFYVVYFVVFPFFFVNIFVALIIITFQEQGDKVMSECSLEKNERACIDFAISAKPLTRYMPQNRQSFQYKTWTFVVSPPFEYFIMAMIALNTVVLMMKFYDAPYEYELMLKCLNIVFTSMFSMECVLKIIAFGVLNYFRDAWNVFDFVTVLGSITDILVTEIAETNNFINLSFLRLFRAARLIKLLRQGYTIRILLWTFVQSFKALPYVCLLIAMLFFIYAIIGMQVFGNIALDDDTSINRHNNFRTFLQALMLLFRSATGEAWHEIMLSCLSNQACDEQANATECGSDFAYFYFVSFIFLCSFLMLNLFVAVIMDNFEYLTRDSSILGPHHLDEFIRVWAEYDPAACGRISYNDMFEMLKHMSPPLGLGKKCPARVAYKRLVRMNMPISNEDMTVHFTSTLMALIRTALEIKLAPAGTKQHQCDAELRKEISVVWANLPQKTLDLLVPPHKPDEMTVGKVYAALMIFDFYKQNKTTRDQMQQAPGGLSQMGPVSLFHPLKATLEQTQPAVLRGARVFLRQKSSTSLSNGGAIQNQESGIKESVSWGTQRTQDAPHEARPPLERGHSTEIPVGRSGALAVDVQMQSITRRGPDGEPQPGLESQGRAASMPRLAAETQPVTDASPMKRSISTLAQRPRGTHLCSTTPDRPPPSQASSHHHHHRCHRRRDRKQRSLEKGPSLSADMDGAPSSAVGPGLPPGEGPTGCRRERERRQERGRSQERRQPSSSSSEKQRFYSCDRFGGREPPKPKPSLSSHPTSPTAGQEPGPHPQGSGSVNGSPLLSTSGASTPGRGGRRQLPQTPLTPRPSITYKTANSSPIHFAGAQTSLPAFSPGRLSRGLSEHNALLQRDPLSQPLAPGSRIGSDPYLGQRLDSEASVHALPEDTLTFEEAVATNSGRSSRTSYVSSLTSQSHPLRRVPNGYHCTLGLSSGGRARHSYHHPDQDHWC
T4 sequence (Q02410 whole entry): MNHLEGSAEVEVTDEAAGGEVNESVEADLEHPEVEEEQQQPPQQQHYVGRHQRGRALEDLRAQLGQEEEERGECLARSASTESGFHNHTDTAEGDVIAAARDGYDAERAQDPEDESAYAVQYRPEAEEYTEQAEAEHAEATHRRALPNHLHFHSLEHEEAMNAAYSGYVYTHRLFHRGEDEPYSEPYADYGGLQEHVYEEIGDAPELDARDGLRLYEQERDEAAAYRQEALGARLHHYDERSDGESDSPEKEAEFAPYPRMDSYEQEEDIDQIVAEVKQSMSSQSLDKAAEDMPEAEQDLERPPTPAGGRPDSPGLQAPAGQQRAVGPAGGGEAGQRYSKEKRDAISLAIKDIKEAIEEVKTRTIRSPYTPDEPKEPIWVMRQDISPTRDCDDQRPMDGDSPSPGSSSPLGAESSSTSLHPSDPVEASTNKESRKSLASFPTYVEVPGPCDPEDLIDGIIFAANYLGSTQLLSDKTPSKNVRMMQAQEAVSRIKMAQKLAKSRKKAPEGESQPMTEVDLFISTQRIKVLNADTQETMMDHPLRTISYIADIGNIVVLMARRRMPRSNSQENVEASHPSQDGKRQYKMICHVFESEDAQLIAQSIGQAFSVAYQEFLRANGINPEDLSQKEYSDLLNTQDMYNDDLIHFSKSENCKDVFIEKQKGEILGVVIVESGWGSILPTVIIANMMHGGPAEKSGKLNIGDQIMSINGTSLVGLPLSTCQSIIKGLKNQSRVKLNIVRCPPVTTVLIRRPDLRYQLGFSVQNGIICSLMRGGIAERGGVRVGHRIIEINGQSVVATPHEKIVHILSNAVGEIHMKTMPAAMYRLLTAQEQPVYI
T1 sequence (Q9HC29 whole entry, the tested form may be a part): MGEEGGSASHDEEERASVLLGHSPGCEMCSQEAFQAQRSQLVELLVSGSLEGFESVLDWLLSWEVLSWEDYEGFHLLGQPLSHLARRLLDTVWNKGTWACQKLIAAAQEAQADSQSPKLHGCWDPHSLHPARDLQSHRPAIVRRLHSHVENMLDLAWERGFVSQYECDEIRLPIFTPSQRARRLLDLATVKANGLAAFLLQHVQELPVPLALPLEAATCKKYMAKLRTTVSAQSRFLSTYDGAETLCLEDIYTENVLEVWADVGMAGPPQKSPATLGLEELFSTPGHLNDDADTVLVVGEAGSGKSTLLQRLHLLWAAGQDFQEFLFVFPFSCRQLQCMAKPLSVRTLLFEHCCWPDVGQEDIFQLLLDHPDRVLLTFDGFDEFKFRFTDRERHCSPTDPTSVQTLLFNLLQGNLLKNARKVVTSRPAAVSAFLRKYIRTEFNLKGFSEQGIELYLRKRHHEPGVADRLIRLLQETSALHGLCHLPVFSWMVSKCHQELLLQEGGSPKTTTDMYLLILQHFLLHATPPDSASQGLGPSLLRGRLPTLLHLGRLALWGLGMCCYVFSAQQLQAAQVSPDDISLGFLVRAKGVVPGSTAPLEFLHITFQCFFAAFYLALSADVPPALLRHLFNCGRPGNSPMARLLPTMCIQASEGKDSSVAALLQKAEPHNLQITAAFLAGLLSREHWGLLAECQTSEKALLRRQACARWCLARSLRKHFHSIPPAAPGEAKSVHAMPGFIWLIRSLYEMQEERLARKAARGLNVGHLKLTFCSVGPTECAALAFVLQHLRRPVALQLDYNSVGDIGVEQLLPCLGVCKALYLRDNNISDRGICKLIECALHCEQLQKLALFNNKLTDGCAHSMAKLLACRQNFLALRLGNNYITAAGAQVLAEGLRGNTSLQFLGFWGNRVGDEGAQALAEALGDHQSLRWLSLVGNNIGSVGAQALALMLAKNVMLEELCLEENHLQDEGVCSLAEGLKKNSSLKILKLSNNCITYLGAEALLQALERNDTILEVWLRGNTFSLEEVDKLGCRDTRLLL
Sequence of Neurotensin receptor type 1 (P30989 whole entry): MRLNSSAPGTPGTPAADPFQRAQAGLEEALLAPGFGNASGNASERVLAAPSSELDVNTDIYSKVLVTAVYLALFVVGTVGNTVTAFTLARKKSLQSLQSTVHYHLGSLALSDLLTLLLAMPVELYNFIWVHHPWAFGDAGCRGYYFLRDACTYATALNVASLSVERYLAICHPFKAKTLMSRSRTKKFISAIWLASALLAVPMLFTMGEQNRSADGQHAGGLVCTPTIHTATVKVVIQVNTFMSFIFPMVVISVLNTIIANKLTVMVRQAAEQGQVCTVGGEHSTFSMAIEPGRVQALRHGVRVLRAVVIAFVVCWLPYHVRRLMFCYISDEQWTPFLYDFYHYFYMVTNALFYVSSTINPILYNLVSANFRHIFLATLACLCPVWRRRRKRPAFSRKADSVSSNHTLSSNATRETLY

As a reminder, the IC50 is the concentration needed to halve the response being measured. In general, EC50 refers to the concentration that produces a half-maximal response. On to `CC1CCc2c(sc(NC(=O)/C=C/c3cccs3)c2C(=O)O)C1` (stereo unspecified), for which the IC50 in the assay on HEK293 [1] is > 20 µM (inactive); on Tumor necrosis factor, 9.63 µM (active); in the assay with HEK293 [2], > 20 µM (inactive); in assay [4], 1.55 µM (active); with HEK293 [5], 16.7 µM (inactive); with HEK293 [6] it was > 20 µM (inactive). Also, the IC50 in the assay with HEK293 [8] is > 20 µM (inactive). Further, the EC50 in assay [3] was > 20 µM (inactive); in the assay with HEK293 [7], 6.14 µM (active).

Take `NS(=O)(=O)c1ccc(NC(=O)c2ccc(-c3ccccc3)cc2)cc1`: the IC50 is 4.56 µM (active) in [9]; 8.12 µM (active) in [10]; 51.4 µM (active) at Prothrombin; 13.8 µM (active) at SUMO-activating enzyme; > 100 µM (inactive) in assay [11]; > 50 µM (inactive) in [12]. Moreover, in assay [13], the half-maximal inhibitory concentration (IC50) is 4.83 µM (active).

Broadly, the AC50 is the midpoint of the concentration-response curve, whichever way the signal moves. In the case of `Oc1ccc(-c2cc(-c3ccc(O)cc3)nc(-c3ccccc3)n2)cc1`, the EC50 in [14] was 3.86 µM (active); in [15], 19.4 µM (active); in [16], > 60 µM (not active). In addition, in assay [17], the half-maximal activity concentration (AC50) is 1.81 µM (active).

For `COC(=O)c1c(NC(=O)c2cccc(F)c2)sc2c1CCC(C)C2` (stereo unspecified), the IC50 (on Tumor necrosis factor; in the assay on HEK293 [2]; in [4]; in assay [18]) was > 20 µM (inactive) in each case.

In the case of `Cc1cccc(C(=O)Nc2ccnc(-c3ccncc3)n2)c1`, the IC50 at Insulin-degrading enzyme was 7.39 µM (active); in assay [19], 22.9 µM (not active).
